Test system: Mycobacterium tuberculosis
Assay: Induction of resistant in Mycobacterium tuberculosis H37Rv in Middlebrook 7H9 broth with glucose at 10 times MIC after 4 to 5 weeks relative to control
Format: functional

O=C(Nc1nc(-c2ccccn2)cs1)c1cccc(Br)c1
fold change (FC): 2

Reference: ChEMBL document CHEMBL2440116, “Structure-activity relationships of 2-aminothiazoles effective against Mycobacterium tuberculosis” (Bioorg Med Chem, 2013)
